Test results from BindingDB's records for doi:10.1021/jm0009641 (University of Bristol, 2000).

Experiments:
[1] = Displacement of radioligand [3H]- DPDPE on Opioid receptor delta 1 in monkey brain membranes
[2] = Displacement of radioligand [3H]- DAMGO on Opioid receptor mu 1 in monkey brain membranes range; Value ranges from (0.32-0.91)
[3] = Displacement of radioligand [3H]- DPDPE on Opioid receptor delta 1 in monkey brain membranes range; Value ranges from (34.0-43.2)
[4] = Displacement of radioligand [3H]- U-69,593 on Opioid receptor kappa 1 in monkey brain membranes range; Value ranges from (9.7-14.2)

SMILES | Ki [1] [nM] | Ki [2] [nM] | Ki [3] [nM] | Ki [4] [nM]
O=C(/C=C/c1ccc(Cl)cc1)N[C@@]12CCC(=O)[C@@H]3Oc4c(O)ccc5c4[C@@]31CCN(CC1CC1)[C@@H]2C5 [1N-[4-cyclopropylmethyl-10-hydroxy-14-oxo-(17S)-12-oxa-4-azapentacyclo[9.6.1.01,13.05,17.07,18]octadeca-7,9,11(18)-trien-17-yl]-3-(4-chlorophenyl)-(E)-2-propenamide(Clocinnamox (C-CAM))] | 1.6 |  |  | 
COc1ccc2c3c1O[C@H]1C(=O)CC[C@@]4(NC(=O)/C=C/c5ccc(Cl)cc5)[C@@H](C2)N(CC2CC2)CC[C@]314 [1N-[4-cyclopropylmethyl-10-methoxy-14-oxo-(13R)-12-oxa-4-azapentacyclo[9.6.1.01,13.05,17.07,18]octadeca-7,9,11(18)-trien-17-yl]-3-(4-chlorophenyl)-(E)-2-propenamide] | 4.5 |  |  | 
O=C(/C=C/c1ccc(Cl)cc1)NC12CCC(=O)C3Oc4cccc5c4[C@@]31CCN(CC1CC1)C2C5 (stereo partly drawn) [1N-[4-cyclopropylmethyl-14-oxo-(13R)-12-oxa-4-azapentacyclo[9.6.1.01,13.05,17.07,18]octadeca-7,9,11(18)-trien-17-yl]-3-(4-chlorophenyl)-(E)-2-propenamide] |  | 0.54 | 37 | 12
